From the supplement of paper PMC5908809

Legend:
[1] = test system: DERL-7 (IL-2 2.5 ng/mL); experiment: drug sensitivity score (DSS) (DSS units); higher = more sensitive; extreme values may be limits of the assay; conditions: 72 h
[2] = test system: KHYG-1 (IL-2 2.5 ng/mL); experiment: as above; conditions: 72 h
[3] = test system: YT (IL-2 2.5 ng/mL); experiment: as above; conditions: 72 h
[4] = test system: NKL (IL-2 2.5 ng/mL); experiment: as above; conditions: 72 h
[5] = test system: SNK-6 (IL-2 2.5 ng/mL); experiment: as above; conditions: 72 h
[6] = test system: NK-YS (IL-2 2.5 ng/mL); experiment: as above; conditions: 72 h
[7] = test system: normal primary NK cells, pool 3 (3 donors) (IL-2 2.5 ng/mL); experiment: as above; conditions: 72 h
[8] = test system: normal primary NK cells, pool 1 (3 donors) (IL-2 2.5 ng/mL); experiment: as above; conditions: 72 h
[9] = test system: normal primary NK cells, pool 1 (3 donors), resting (IL-2 0 ng/mL); experiment: as above; conditions: 72 h
[10] = test system: IMC-1 (IL-2 20 ng/mL); experiment: as above; conditions: 72 h
[11] = test system: NK-92 (IL-2 2.5 ng/mL); experiment: as above; conditions: 72 h
[12] = test system: normal primary NK cells, pool 2 (3 donors) (IL-2 2.5 ng/mL); experiment: as above; conditions: 72 h
[13] = test system: KAI3 (IL-2 2.5 ng/mL); experiment: as above; conditions: 72 h
[14] = test system: normal NK cells expanded with K562-aAPC; experiment: percent inhibition of viability; higher = more inhibition; conditions: 72 h, IL-2 2.5 ng/mL
Protocol: (§1)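 Drug sensitivity and resistance testing on K562-aAPC-expanded normal NK cells: 5 concentrations (10-fold steps over a 10,000-fold range), 72 h at 37 °C, viability by CellTiter-Glo normalised to DMSO and benzethonium chloride controls; DSS from the fitted curve.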

[15] = test system: DERL-7 (IL-2 2.5 ng/mL); experiment: as above; conditions: 72 h
[16] = test system: KHYG-1 (IL-2 2.5 ng/mL); experiment: as above; conditions: 72 h
[17] = test system: YT (IL-2 2.5 ng/mL); experiment: as above; conditions: 72 h
[18] = test system: NKL (IL-2 2.5 ng/mL); experiment: as above; conditions: 72 h
[19] = test system: SNK-6 (IL-2 2.5 ng/mL); experiment: as above; conditions: 72 h
[20] = test system: NK-YS (IL-2 2.5 ng/mL); experiment: as above; conditions: 72 h
[21] = test system: normal primary NK cells, pool 3 (3 donors) (IL-2 2.5 ng/mL); experiment: as above; conditions: 72 h
[22] = test system: normal primary NK cells, pool 1 (3 donors) (IL-2 2.5 ng/mL); experiment: as above; conditions: 72 h
[23] = test system: normal primary NK cells, pool 1 (3 donors), resting (IL-2 0 ng/mL); experiment: as above; conditions: 72 h
[24] = test system: IMC-1 (IL-2 20 ng/mL); experiment: as above; conditions: 72 h
[25] = test system: NK-92 (IL-2 2.5 ng/mL); experiment: as above; conditions: 72 h
[26] = test system: normal primary NK cells, pool 2 (3 donors) (IL-2 2.5 ng/mL); experiment: as above; conditions: 72 h
[27] = test system: KAI3 (IL-2 2.5 ng/mL); experiment: as above; conditions: 72 h
[28] = test system: normal NK cells expanded with K562-aAPC; experiment: drug sensitivity score (DSS) (DSS units); higher = more sensitive; extreme values may be limits of the assay; conditions: 72 h; IL-2 2.5 ng/mL
Protocol: as §1

CCC1(c2ccc(N)cc2)CCC(=O)NC1=O (configuration not stated) [Aminoglutethimide] (max concentration tested 10000 nM)
Conditions	drug sensitivity score
[1]	0
[2]	0
[3]	0
[4]	0.06
[5]	0
[6]	0
[7]	0
[8]	0
[9]	0.43
[10]	0
[11]	0
[12]	0
[13]	0
[28]	0

percent inhibition of viability [%]
Conditions	1 nM	10 nM	100 nM	1000 nM	10000 nM
[14]	1.05	-2.97	-1	-2.85	0.83
[15]	6.92	1.97	7.28	-2.32	7.58
[16]	16.4	0	11	1.44	15.2
[17]	13.1	2.62	11.4	2.84	12.5
[18]	28.3	0.83	18.7	-2.97	15.1
[19]	21.1	17.4	10.2	-16	-32.7
[20]	4.81	6.87	2.26	7.56	4.69
[21]	4.12	-2.09	1.89	3.88	6.3
[22]	-5.3	-8.94	-8.74	-4.93	1.17
[23]	-3.93	-9.4	-1.78	-7.06	21.1
[24]	1.84	4.93	3.29	2.36	3.88
[25]	7.96	0.54	12.4	0.81	11.1
[26]	3.13	3.88	0.19	1.2	8.45
[27]	14	10.4	8.76	9.73	9.01

CO[C@@H](C(=O)N1Cc2[nH]nc(NC(=O)c3ccc(N4CCN(C)CC4)cc3)c2C1)c1ccccc1 [Danusertib] (max concentration tested 10000 nM)
Conditions	drug sensitivity score
[1]	14.3
[2]	13.2
[3]	7.27
[4]	6.51
[5]	12.2
[6]	14.6
[7]	1.46
[8]	4.29
[9]	0
[10]	17.9
[11]	10.4
[12]	3.85
[13]	10
[28]	8.98

percent inhibition of viability [%]
Conditions	1 nM	10 nM	100 nM	1000 nM	10000 nM
[14]	0.09	-2.41	-1.99	45	66.8
[15]	4.21	7.76	28.8	56.9	73.3
[16]	-6.8	-6.2	5.51	66.7	86.5
[17]	-0.26	-0.92	21.1	27.8	44.9
[18]	-10.8	-14.4	-11	20.2	64.9
[19]	-10.1	-21.1	-2.34	66.7	72.5
[20]	-2.39	-4.33	9.93	70.3	61.7
[21]	-3.44	7.87	4.81	5.78	23.5
[22]	-7.78	14.4	8.28	17.6	41.4
[23]	2.29	22.1	18.6	2.51	-6.72
[24]	-7.01	-4.49	6.37	93.6	99.5
[25]	4	8.37	15.1	45.9	64.6
[26]	-7.19	11.2	11.8	13.2	39.9
[27]	-6.41	-1.03	23.9	37.9	69.3

O=C(NC[C@H](O)CO)c1ccncc1Nc1ccc(I)cc1F [Pimasertib] (max concentration tested 10000 nM)
Conditions	drug sensitivity score
[1]	11.6
[2]	14.8
[3]	0.17
[4]	18.1
[5]	0
[6]	2.03
[7]	0
[8]	2.21
[9]	2.06
[10]	0
[11]	0
[12]	0.17
[13]	5.63
[28]	0.89

percent inhibition of viability [%]
Conditions	1 nM	10 nM	100 nM	1000 nM	10000 nM
[14]	0.25	-8.62	0.85	3.75	18
[15]	0.5	14.9	29.4	37.8	49.7
[16]	-2.11	9.27	31.9	59.1	61.3
[17]	0.32	1.92	-0.1	10.8	10.6
[18]	-5.35	10.9	45.4	63.2	66.3
[19]	-12.2	-4.53	-21	-22.5	-8.46
[20]	-5.36	-3.17	-0.42	15.1	19.9
[21]	-8.93	-10.8	-10.3	-6.25	5.59
[22]	-8.76	5.99	2.83	15.8	22.1
[23]	10.1	-6.83	-15.1	8.84	24.8
[24]	-6.58	-3.26	-9.96	-4.58	5.6
[25]	6.11	-18.6	-12.1	-18.6	-16.4
[26]	-12.9	1.34	0.74	1.01	13.2
[27]	-9.91	7.15	14.8	26.4	27.1
